Read-outs that look alike come from different tables or passages of the source.
Assays:
[1] = tested on: Key Broadleaf Weed and Crop Species; experiment: Post-Emergent Test II (Table 5); type: in vivo; conditions: post-emergence, 336 h, given as numbers; for pest or weed control at 70 g/ha: application rate 70 (kg ai/ha; footnote: g ai/ha); for pest or weed control at 140 g/ha: application rate 140 (kg ai/ha; footnote: g ai/ha)
Protocol: (§1) Seeds or nutlets of the desired test plant species were planted in Sun Gro Metro-Mix® 360 planting mixture, which typically has a pH of 6.0 to 6.8 and an organic matter content of about 30 percent, in plastic pots with a surface area of 64 square centimeters. When required to ensure good germination and healthy plants, a fungicide treatment and/or other chemical or physical treatment was applied. The plants were grown for 7-21 days in a greenhouse with an approximate 15 h photoperiod which was maintained at about 23-29° C. during the day and 22-28° C. during the night. Nutrients and water were added on a regular basis and supplemental lighting was provided with overhead metal halide 1000-Watt lamps as necessary. The plants were employed for testing when they reached the first or second true leaf stage.
(§2) A weighed amount, determined by the highest rate to be tested, of each test compound was placed in a 25 mL glass vial and was dissolved in 4 mL of a 97:3 v/v mixture of acetone and DMSO to obtain concentrated stock solutions. […] The concentrated stock solutions obtained were diluted with 20 mL of an aqueous mixture containing acetone, water, isopropyl alcohol, DMSO, Atplus 411F crop oil concentrate, and Triton® X-155 surfactant in a 48.5:39:10:1.5:1.0:0.02 v/v ratio to obtain spray solutions containing the highest application rates. Additional application rates were obtained by serial dilution of 12 mL of the high rate solution into a solution containing 2 mL of 97:3 v/v mixture of acetone and DMSO and 10 mL of an aqueous mixture containing acetone, water, isopropyl alcohol, DMSO, Atplus 411F crop oil concentrate, and Triton X-155 surfactant in a 48.5:39:10:1.5:1.0:0.02 v/v ratio to obtain ½×, ¼×, ⅛× and 1/16× rates of the high rate. Compound requirements are based upon a 12 mL application volume at a rate of 187 liters per hectare (L/ha). Formulated compounds were applied to the plant material with an overhead Mandel track sprayer equipped with 8002E nozzles calibrated to deliver 187 L/ha over an application area of 0.503 square meters at a spray height of 18 inches (43 cm) above the average plant canopy height. Control plants were sprayed in the same manner with the solvent blank.
(§3) The treated plants and control plants were placed in a greenhouse as described above and watered by subirrigation to prevent wash-off of the test compounds. After 14 days, the condition of the test plants as compared with that of the untreated plants was determined visually and scored on a scale of 0 to 100 percent where 0 corresponds to no injury and 100 corresponds to complete kill and presented as indicated in Table A. Some of the compounds tested, application rates employed, plant species tested, and results are given in Table 5.

[2] = tested on: Key Grass and Sedge Weeds as well as Grass Crops; experiment: Post-Emergent Test II (Table 6); type: in vivo; conditions: given as numbers; for Visual Growth Reduction (%) 14 Days After Application, CYPSS: CYPSS (CYPES: yellow nutsedge, Cyperus esculentus); for Visual Growth Reduction (%) 14 Days After Application, DIGSA: DIGSA: crabgrass (Digitaria sanguinalis); for Visual Growth Reduction (%) 14 Days After Application, ECHSS: ECHSS (ECHCG: barnyardgrass, Echinochloa crus-galli); for Visual Growth Reduction (%) 14 Days After Application, ORYSS: ORYSS (ORYSA: rice, Oryza sativa); for Visual Growth Reduction (%) 14 Days After Application, ORYSS / Visual Growth Reduction (%) 14 Days After Application, TRZSS / Visual Growth Reduction (%) 14 Days After Application, ZEAMX: crop; for Visual Growth Reduction (%) 14 Days After Application, SETFA: SETFA: giant foxtail (Setaria faberi); for Visual Growth Reduction (%) 14 Days After Application, SORVU: SORVU: johnsongrass (Sorghum vulgare); for Visual Growth Reduction (%) 14 Days After Application, TRZSS: TRZSS (TRZAS: wheat, spring, Triticum aestivum); for Visual Growth Reduction (%) 14 Days After Application, ZEAMX: ZEAMX: maize, corn (Zea mays)
Protocol: as §1, §2, §3

[3] = Abutilon theophrasti, ABUTH: velvetleaf (Abutilon theophrasti), read-out: Visual Growth Reduction (%) 14 Days After Application ABUTH
[4] = Amaranthus retroflexus, AMARE: redroot pigweed (Amaranthus retroflexus), read-out: Visual Growth Reduction (%) 14 Days After Application AMARE
[5] = Brassica napus, BRSSS: oilseed rape, canola (Brassica napus), read-out: Visual Growth Reduction (%) 14 Days After Application BRSSS
[6] = Chenopodium album, CHEAL: lambsquarters (Chenopodium album), read-out: Visual Growth Reduction (%) 14 Days After Application CHEAL
[7] = Euphorbia heterophylla, EPHHL: wild poinsettia (Euphorbia heterophylla), read-out: Visual Growth Reduction (%) 14 Days After Application EPHHL
[8] = Helianthus annuus, HELAN: sunflower (Helianthus annuus), read-out: Visual Growth Reduction (%) 14 Days After Application HELAN
[9] = Viola tricolor, VIOTR: wild pansy (Viola tricolor), read-out: Visual Growth Reduction (%) 14 Days After Application VIOTR

Row | melting point | Compound | pest or weed control at 70 g/ha [1, 3] | pest or weed control at 140 g/ha [1, 3] | pest or weed control at 70 g/ha [1, 4] | pest or weed control at 140 g/ha [1, 4] | pest or weed control at 70 g/ha [1, 5] | pest or weed control at 140 g/ha [1, 5] | pest or weed control at 70 g/ha [1, 6] | pest or weed control at 140 g/ha [1, 6] | pest or weed control at 70 g/ha [1, 7] | pest or weed control at 140 g/ha [1, 7] | pest or weed control at 70 g/ha [1, 8] | pest or weed control at 140 g/ha [1, 8] | pest or weed control at 70 g/ha [1, 9] | pest or weed control at 140 g/ha [1, 9] | Visual Growth Reduction (%) 14 Days After Application, CYPSS ([2]; 70 g ai/ha) | Visual Growth Reduction (%) 14 Days After Application, CYPSS ([2]; 140 g ai/ha) | Visual Growth Reduction (%) 14 Days After Application, DIGSA ([2]; 70 g ai/ha) | Visual Growth Reduction (%) 14 Days After Application, DIGSA ([2]; 140 g ai/ha) | Visual Growth Reduction (%) 14 Days After Application, ECHSS ([2]; 70 g ai/ha) | further results
1 | 140 to 143 °C | CCc1c(-c2cc(N)c(Cl)c(C(=O)OC)n2)ccc(Cl)c1F [Compound 21] | – | – | – | – | – | – | – | – | – | – | – | – | – | – | – | – | – | – | – | –
2 | 144 to 146 °C | COC(=O)c1nc(-c2ccc(C(F)F)nc2)c(F)c(N)c1Cl [Compound 34, methyl 4-amino-5-chloro-6′-(difluoromethyl)-3-fluoro-2,3′-bipyridine-6-carboxylate] | – | – | – | – | – | – | – | – | – | – | – | – | – | – | – | – | – | – | – | –
3 | – | C=Cc1c(C(=O)O)nc(-c2ccc(C(F)(F)F)nc2)c(F)c1N [Compound 101] | 85% | 85% | 100% | 100% | 70% | 80% | 100% | 98% | 98% | 100% | 80% | 85% | 75% | 80% | 80% | 80% | 0% | 10% | 80% | Visual Growth Reduction (%) 14 Days After Application, ECHSS ([2]; 140 g ai/ha): 60%; Visual Growth Reduction (%) 14 Days After Application, ORYSS ([2]; 70 g ai/ha): 40%; Visual Growth Reduction (%) 14 Days After Application, ORYSS ([2]; 140 g ai/ha): 95%; Visual Growth Reduction (%) 14 Days After Application, SETFA ([2]; 70 g ai/ha): 20%; Visual Growth Reduction (%) 14 Days After Application, SETFA ([2]; 140 g ai/ha): 40%; Visual Growth Reduction (%) 14 Days After Application, SORVU ([2]; 70 g ai/ha): 45%; Visual Growth Reduction (%) 14 Days After Application, SORVU ([2]; 140 g ai/ha): 75%; Visual Growth Reduction (%) 14 Days After Application, TRZSS ([2]; 70 g ai/ha): 10%; Visual Growth Reduction (%) 14 Days After Application, TRZSS ([2]; 140 g ai/ha): 40%; Visual Growth Reduction (%) 14 Days After Application, ZEAMX ([2]; 70 g ai/ha): 0%; Visual Growth Reduction (%) 14 Days After Application, ZEAMX ([2]; 140 g ai/ha): 25%
4 | – | C=Cc1c(N)nc(-c2ccc(C(F)(F)F)nc2)nc1C(=O)O [Compound 102] | 15% | 15% | 85% | 100% | 20% | 35% | 80% | 75% | 85% | 100% | 65% | 75% | 35% | 80% | 10% | 35% | 0% | 0% | 30% | Visual Growth Reduction (%) 14 Days After Application, ECHSS ([2]; 140 g ai/ha): 70%; Visual Growth Reduction (%) 14 Days After Application, ORYSS ([2]; 70 g ai/ha): 0%; Visual Growth Reduction (%) 14 Days After Application, ORYSS ([2]; 140 g ai/ha): 0%; Visual Growth Reduction (%) 14 Days After Application, SETFA ([2]; 70 g ai/ha): 0%; Visual Growth Reduction (%) 14 Days After Application, SETFA ([2]; 140 g ai/ha): 0%; Visual Growth Reduction (%) 14 Days After Application, SORVU ([2]; 70 g ai/ha): 0%; Visual Growth Reduction (%) 14 Days After Application, SORVU ([2]; 140 g ai/ha): 0%; Visual Growth Reduction (%) 14 Days After Application, TRZSS ([2]; 70 g ai/ha): 0%; Visual Growth Reduction (%) 14 Days After Application, TRZSS ([2]; 140 g ai/ha): 10%; Visual Growth Reduction (%) 14 Days After Application, ZEAMX ([2]; 70 g ai/ha): 0%; Visual Growth Reduction (%) 14 Days After Application, ZEAMX ([2]; 140 g ai/ha): 0%

— US10765114B2, “4-amino-6-(pyridyl and 2-substitutedphenyl)-picolinates and 6-amino-2-(pyridyl and 2-substitutedphenyl)-pyrimidine-4-carboxylates and their use as herbicides” (Dow AgroSciences LLC, priority 2013, dated 2020)
